Experimental data published in patent publication US10201558B2, “Compositions of selenoorganic compounds and methods of use thereof” (Alltech, Inc., priority 2014, dated 2019).

Assays:
insoluble Aβ1-42 = assay: ELISA of insoluble (FA-soluble) Aβ1-42 in the brains of APP/PS1 mice; type: in vivo, mouse; conditions: diet with 1 ppm Se from Compound C, 6 to 12 months of age, vs control mice
Protocol: Male APPΔNLh/ΔNLh×PS1P246 L/246 L knock-in model mice of Alzheimer's disease (abbreviated APP/PS1) were genotyped using standard primers for human APP (Amyloid Precursor Protein) and human PS1 (PSEN1). These APP/PS1 mice starting at the age of 6 months, were fed either a control diet containing normal levels of selenium (0.3 ppm from plant and inorganic selenium salt sources) or an experimental diet containing Compound C (the control diet to which was added 1 ppm Se from Compound C) for 6 months.
At 12 months of age, the mice were euthanized and the brains quickly removed, the cerebellum isolated and the hemispheres snap-frozen in liquid nitrogen and then stored at −80° C. for further immunohistochemistry (IHC), protein and RNA analysis. All procedures conducted on these animal studies were pre-approved by the University of Kentucky IACUC committee.
Frozen hemispheres of control- and Compound C-treated APP/PS1 mice were weighed and homogenized in PBS buffer. Insoluble Aβ fractions (formic acid (FA)-soluble fractions) were extracted from the homogenates using standard serial extraction protocols as described previously (Lovell et al, Free Radic Biol Med 2009; 46:1527-33) Insoluble Aβ1-42 levels (in the FA soluble fraction) were determined using standard sandwich ELISAs (Invitrogen), according to the manufacturer's procedure. […]

APOE4 = assay: Western blot of APOE4 protein in IMR-32 cells; type: cell-based, human; conditions: 150 ppb
Protocol: IMR-32 cells were seeded on 6-well plates and then treated with control and various compounds for 6 hours and 24 hours, as described above. After treatments, cells were rinsed with ice-cold PBS and lysed in ice-cold RIPA buffer containing complete proteinase and phosphatase inhibitors (Thermo-Fisher Scientific, Waltham, Mass.) on ice for 30 min Cell lysates were collected using a cell scraper and transfer pipette and then centrifuged at 12000×g for 30 min at 4° C. to remove the DNA pellet and obtain the protein extract. Protein levels in the supernatant of these cell lysates were determined using the Pierce Micro-BCA protein assay kit (Thermo Scientific-Piece Biotechnology, Rockford, Ill.) according to the manufacturer's protocol […]
Positive signals on the membrane blots were detected using Amersham's enhanced chemiluminescence (ECL) Western Blotting Prime Detection reagents (GE healthcare Lifescience, Pittsburgh, Pa.). Images of these luminescence signals on the membrane blots were captured using the LI-COR Odyssey Fc Image system (Lincoln, Nebr.). […] Protein band densities in the Western blots were determined using the Li—COR Image studio software or NIH ImageJ software, and then normalized by ACTB protein level in each sample. […]

IGF1R = assay: QRT-PCR of IGF1R mRNA in IMR-32 cells; type: cell-based, human; conditions: 75 ppb and 150 ppb, 24 hours
Protocol: (§1) Human IMR-32 cells were seeded on gelatinized 6-well (6.5×10^5 cells/well) or 24-well (1.3×10^5 cells/well) plates. Cells were treated with control (0 ppb) or various compounds for 6 hours or 24 hours. Total RNA from these cells was isolated using Trizol (Invitrogen) according to the manufacturer's protocol, and then incubated with DNase I to remove any potential contaminated genomic DNA. Then RNA samples were subjected to real-time PCR analysis using the Applied-Bioscience's RT kit and predesigned Taqman probes (Invitrogen), as described previously (Lan et al EMBO J 2003). The mRNA levels of UCP1, UCP2, UCP3, SLC25A27 (UCP4), SLC25A14 (UCP5), PSEN1, Nicastrin, GSK3B, MAPK11-14, PPARG, APOE, RCAN1, RCAN1.1, G6PC, INSR, IGF1R and FOXO4 were measured. Three to six samples were analyzed in each treatment group. Data were normalized by Actin B (ACTB) or Glyceraldehyde Phosphate Dehydrogenase (GAPDH) mRNA levels in each sample and are presented as mean±SEM of 3-6 samples.
To examine whether or not Compound C can regulate INSR/IGF1R signaling in IMR-32 cells, QRT-PCR analysis was performed to measure INSR and IGF1R mRNA levels. […] Mean±SEM, n=4. The * refers to a p value <0.05 when compared to the control group (0 ppb).

PPARG = assay: QRT-PCR of PPARG mRNA in IMR-32 cells (normal, control KD, FOXO4 KD); type: cell-based, human
Protocol: IMR-32 cells were cultured on 12-well plates for 24 hours and then incubated with FOXO4 siRNA lentiviruses (SC-29650V, Santa Cruz) or control siRNA lentiviruses (sc-108080, Santa Cruz) in the presence of Polybrene (5 μg/ml, Santa Cruz) for 24 hours according to the manufacturer's protocol. These lentiviral siRNA-transfected cells were amplified in normal media for 3 days and then incubated with puromycin for 9-14 days to obtain the stable Control KD (stably transfected with the control siRNAs) and FOXO4KD (stably transfected with Foxo4 siRNAs) cells. These control and Foxo4 KD cells were subjected to cell survival, mitochondrial potential and RNA analysis.
as §1
To explore this possibility, IMR-32 cells were treated with 150 ppb Compound C, Compound D or Compound E (150 ppb) for 6 hours and 24 hours, and then subjected to Western blot and QRT-PCR analyses. […] Therefore, Compound C and Compound D are downregulators of PPARG in IMR-32 cells at both mRNA and protein levels. […]

Structure (SMILES): C[Se]C[C@H]1O[C@@H](n2cnc3c(N)ncnc32)C(O)C1O (stereo in doubt) [Compound C, 5′-deoxy-5′-methylselenoadenosine]
- reduction of FA-soluble Aβ1-42 levels in the brains (insoluble Aβ1-42): about 30%
- APOE4 protein levels (APOE4; 6 hours): not for 6 hour
- APOE4 protein levels (APOE4; 24 hours): markedly decreased
- IGF1R mRNA expression levels (IGF1R): downregulated
- PPARG mRNA expression (PPARG; FOXO4KD cells, 75 ppb and 150 ppb, 24 hours): not significantly altered
- PPARG mRNA levels (PPARG; IMR-32 cells, 150 ppb, 6 hours): significantly lower
- PPARG mRNA levels (PPARG; control normal cells, 75 ppb and 150 ppb, 24 hours): attenuated
